Reference: patent publication US11229618B2 (Amarin Pharmaceuticals Ireland Limited, priority 2012, dated 2022)
Entries after “also recorded” stand apart in the source; their conditions may differ.

Columns and labels:
[1] = MARINE: plasma fatty acid concentrations, ratios and class proportions (GC/FID); assay type: in vivo, human; details: for Mono-unsaturated, proportion to total fatty acids, Mean placebo-adjusted percent change from baseline / Total omega-6, proportion to total fatty acids, Mean placebo-adjusted percent change from baseline / Saturated, proportion to total fatty acids, Mean placebo-adjusted percent change from baseline / Total omega-3, proportion to total fatty acids, Mean placebo-adjusted percent change from baseline: Plasma; for Palmitic Mean placebo-adjusted percent change from baseline / Oleic Mean placebo-adjusted percent change from baseline / Stearic Mean placebo-adjusted percent change from baseline / Linoleic Mean placebo-adjusted percent change from baseline / DHA Mean placebo-adjusted percent change from baseline / AA Mean placebo-adjusted percent change from baseline / DPAn-3 Mean placebo-adjusted percent change from baseline: plasma, week 12
Experimental: A multi-center, placebo-controlled randomized, double-blind, 12-week study with an open-label extension is performed to evaluate the efficacy and safety of AMR101 in patients with fasting triglyceride levels≥500 mg/dL. The primary objective of the study is to determine the efficacy of AMR101 2 g daily and 4 g daily, compared to placebo, in lowering fasting TG levels in patients with fasting TG levels≥500 mg/dL and ≤1500 mg/dL (≥5.65 mmol/L and ≤16.94 mmol/L).
Eligible patients will be randomly assigned at Visit 4 (Week 0) to receive orally AMR101 2 g daily, AMR101 4 g daily, or placebo for the 12-week double-blind treatment period. AMR101 is provided in 1 g liquid-filled, oblong, gelatin capsules. The matching placebo capsule is filled with light liquid paraffin and contains 0 g of AMR101. During the double-blind treatment period, patients will take 2 capsules (AMR101 or matching placebo) in the morning and 2 in the evening for a total of 4 capsules per day. Patients in the AMR101 2 g/day treatment group will receive 1 AMR101 1 g capsule and 1 matching placebo capsule in the morning and in the evening. Patients in the AMR101 4 g/day treatment group will receive 2 AMR101 1 g capsules in the morning and evening.
Lipids were extracted from plasma and RBC suspensions and converted into fatty acid methyl esters for analysis using a standard validated gas chromatography/flame ionization detection method. Fatty acid parameters were compared between EPA treatment groups and placebo using an ANCOVA model with treatment, gender, type of statin therapy, and presence of diabetes as factors, and the baseline parameter value as a covariate. LSMs, SEs, and 2-tailed 95% confidence intervals for each treatment group and for each comparison were determined.
The monounsaturated fatty acid group included myristoleic, palmitoleic, cis-vaccenic, oleic, gondoic/gadoleic, erucic and nervonic acids. The saturated fatty acid group included myristic, palmitic, stearic, arachidic, behenic and lignoceric acids. The “total omega-3” group included α-linolenic, stearidonic, eicosatrienoic, ω-3 arachidonic, eicosapentaenoic, ω-3 docosapentaenoic and docosahecaenoic acids. The “total omega-6” group included linoleic, γ-linolenic, eicosadienoic, dihomo-γ-linolenic, ω-6 arachidonic, adrenic, and ω-6 docosapentaenoic acids. The “total fatty acid” group represented the sum of the monounsaturated, saturated, total omega-3 and total omega-6 groups.

[2] = Phase 1 multidose pharmacokinetic study: total EPA in plasma (LC-MS/MS); assay type: in vivo, human; details: for Total EPA in plasma, CL/F: day 28; for mean plasma CL/F of ethyl eicosapentaenoate: human
Experimental: A study to characterize the pharmacokinetics of ethyl eicosapentaenoate in plasma and red blood cells after multiple-dose administration of IPE at 2 g per day and 4 g per day was performed in healthy adult male and female humans.
The study was a phase 1, open-label, randomized, multidose study in healthy, nonsmoking men and women aged>18 and ≤55 years with a body mass index (BMI)>18 and ≤30 kg/m′. Exclusion criteria included use within 6 weeks prior to randomization through study end of any lipid-altering medications or supplements, including statins, niacin at levels of greater than 200 mg/day, fibrates, ezetimibe, bile acid sequestrants, omega-3 fatty acid medications, and supplements or foods enriched with omega-3 fatty acids (no more than 2 servings of fish per week were permitted).
Following a 14-day screening period, subjects entered a 28-day treatment period and were randomized to one of four IPE dose regimen treatment groups as shown in FIG. 1. Group 1 received IPE 2 g daily (1000-mg capsules; twice-daily [BID] regimen); Group 2 received IPE 4 g daily (1000-mg capsules; BID regimen); Group 3 received IPE 2 g daily (1000-mg capsules; once-daily [QD] regimen); and Group 4 received IPE 2 g daily (500-mg capsules; BID regimen). Treatment was administered orally, with or following a meal in the morning and evening for BID regimens, or in the morning only for the QD regimen. Subjects then entered an 18-day post-treatment pharmacokinetic sampling period.
Fasting EPA concentrations were measured with a validated liquid chromatography with tandem mass spectrometry (LC-MS/MS) method in plasma and RBCs prior to the morning dose (days 1, 14, 26, 28) and at serial time points (1, 3, 5, 6, 8, 10, 12, 24, 48, 72, 120, 192, 312, and 432 hours) after the morning dose on day 28. After the last dose on day 28, EPA concentrations were followed for 18 days to estimate the expected long half-life of EPA. Total plasma EPA included all EPA forms (unesterified EPA and that incorporated in phospholipids, triacylglycerols, and cholesteryl esters). In RBCs, EPA was measured in the cell membrane, where EPA is mainly incorporated in phospholipids.
For total EPA in plasma and RBCs, lipids were isolated by acid/methanol/chloroform extraction followed by centrifugation and purified by isohexane and solid-phase extraction after confirmed complete lipid hydrolysis and transmethylation (acid/methanol, 50° C. overnight). For unesterified EPA in plasma, 25 μL of an inhibitor solution (0.5 g sodium fluoride, 1.0 g L-ascorbic acid, and 0.25 g 5-methylisoxazole-3-carboxylic acid per 10 mL water) was included per 1 mL plasma sample to prevent degradation and lipids were isolated by centrifugation after methanol/chloroform extraction (without hydrolysis or methylation) and further purified by protein precipitation and solid-phase extraction. Quantitation utilized linolenic acid as an internal standard and EPA as the standard for the calibration curve; for total plasma EPA, RBC EPA, and unesterified EPA, the lower limits of quantitation were 10 μg/mL, 5 μg/mL, and 50 ng/mL, respectively. EPA concentrations were measured at Charles River Laboratories Ltd (Elphinstone Research Center, Tranent, Edinburgh, Scotland, UK).
Unless otherwise specified, all reported parameters are based on baseline-subtracted concentrations (baseline is due to EPA derived from dietary sources).

[3] = IPE 2 g/day vs placebo, P <0.0001
[4] = IPE 4 g/day vs placebo, P <0.0001

**Q.** Which “Mono-unsaturated, proportion to total fatty acids, Mean placebo-adjusted percent change from baseline” value ([1]; IPE 2 g/day vs placebo, P 0.0009) does the source give for `CC/C=C\C/C=C\C/C=C\C/C=C\C/C=C\CCCC(=O)OCC` [IPE, all-cis eicosa-5,8,11,14,17-pentaenoic acid ethyl ester] here?
**A.** Its value is −7.4%.

**Q.** And the “Total omega-6, proportion to total fatty acids, Mean placebo-adjusted percent change from baseline” value ([1]; IPE 2 g/day vs placebo, P 0.3044)?
**A.** The value was 3.2%.

**Q.** And the “Saturated, proportion to total fatty acids, Mean placebo-adjusted percent change from baseline” value ([1]; IPE 2 g/day vs placebo, P 0.8076)?
**A.** Its value is −0.4%.

**Q.** And the “Total omega-3, proportion to total fatty acids, Mean placebo-adjusted percent change from baseline” value [1, 3]?
**A.** The value was 68.4%.

**Q.** What about the “Mono-unsaturated, proportion to total fatty acids, Mean placebo-adjusted percent change from baseline” value ([1]; IPE 4 g/day vs placebo, P 0.0008) of the same compound?
**A.** Its value is −7.7%.

**Q.** And the “Saturated, proportion to total fatty acids, Mean placebo-adjusted percent change from baseline” value ([1]; IPE 4 g/day vs placebo, P 0.1049)?
**A.** The value was −2.8%.

**Q.** And the “Total omega-6, proportion to total fatty acids, Mean placebo-adjusted percent change from baseline” value ([1]; IPE 4 g/day vs placebo, P 0.8846)?
**A.** Its value is 0.5%.

**Q.** And the “Total omega-3, proportion to total fatty acids, Mean placebo-adjusted percent change from baseline” value [1, 4]?
**A.** The value was 132.7%.

**Q.** And the “Palmitic Mean placebo-adjusted percent change from baseline” value ([1]; IPE 2 g/day vs placebo, P 0.0011)?
**A.** Its value is −23.9%.

**Q.** And the “Oleic Mean placebo-adjusted percent change from baseline” value ([1]; IPE 2 g/day vs placebo, P 0.0023)?
**A.** The value was −23.8%.

**Q.** What about the “Stearic Mean placebo-adjusted percent change from baseline” value ([1]; IPE 2 g/day vs placebo, P 0.0040) of the same compound?
**A.** Its value is −20.7%.

**Q.** What about the “Linoleic Mean placebo-adjusted percent change from baseline” value ([1]; IPE 2 g/day vs placebo, P 0.0136) of the same compound?
**A.** The value was −15.2%.

**Q.** And the “DHA Mean placebo-adjusted percent change from baseline” value ([1]; IPE 2 g/day vs placebo, P 0.7217)?
**A.** Its value is −2.3%.

**Q.** What about the “AA Mean placebo-adjusted percent change from baseline” value [1, 3] of the same compound?
**A.** Its value is −16.4%.

**Q.** What about the “DPAn-3 Mean placebo-adjusted percent change from baseline” value [1, 3] of the same compound?
**A.** The value was 107.2%.

**Q.** What about the “Oleic Mean placebo-adjusted percent change from baseline” value ([1]; IPE 4 g/day vs placebo, P 0.0001) of the same compound?
**A.** The value was −31.9%.

**Q.** What about the “Stearic Mean placebo-adjusted percent change from baseline” value ([1]; IPE 4 g/day vs placebo, P 0.0002) of the same compound?
**A.** Its value is −28.4%.

**Q.** And the “Linoleic Mean placebo-adjusted percent change from baseline” value ([1]; IPE 4 g/day vs placebo, P 0.0003)?
**A.** The value was −23.7%.

**Q.** And the “DHA Mean placebo-adjusted percent change from baseline” value ([1]; IPE 4 g/day vs placebo, P 0.7115)?
**A.** Its value is 2.4%.

**Q.** And the “AA Mean placebo-adjusted percent change from baseline” value [1, 4]?
**A.** The value was −26.8%.

**Q.** And the “DPAn-3 Mean placebo-adjusted percent change from baseline” value [1, 4]?
**A.** The value was 150.8%.

**Q.** What about the “Palmitic Mean placebo-adjusted percent change from baseline” value [1, 4] of the same compound?
**A.** The value was −34.4%.

**Q.** What about the “dose linearity of EPA exposure (dose-normalized AUC and maximum concentration)” value ([2]; 2 g/day vs 4 g/day (Group 1 vs. Group 2), total plasma, total RBCs, unesterified EPA) of the same compound?
**A.** Its value is “Dose linearity was observed; also recorded: dose-proportional”.

**Q.** And the “comparison of exposure between QD and BID regimens” value ([2]; 2 g/day, Group 1 vs. Group 3)?
**A.** The value was “similarity between QD and BID regimens”.

**Q.** And the “comparison of exposure between 1×1000-mg and 2×500-mg formulations” value ([2]; 2 g/day, Group 1 vs. Group 4)?
**A.** Its value is “similarity; also recorded: comparable exposures at comparable doses”.

**Q.** And the “Total EPA in plasma, CL/F” value ([2]; Group 1: IPE 2 g/d 1 × 1000 mg BID)?
**A.** Its value is 776.4 mL/h.

**Q.** And the “Total EPA in plasma, CL/F” value ([2]; Group 2: IPE 4 g/d 2 × 1000 mg BID)?
**A.** Its value is 683.7 mL/h.

**Q.** What about the “Total EPA in plasma, CL/F” value ([2]; Group 3: IPE 2 g/d 2 × 1000 mg QD) of the same compound?
**A.** The value was 867.7 mL/h.

**Q.** And the “Total EPA in plasma, CL/F” value ([2]; Group 4: IPE 2 g/d 2 × 500 mg BID)?
**A.** The value was 684.5 mL/h.

**Q.** And the “mean plasma CL/F of ethyl eicosapentaenoate” value ([2]; about 1 g orally twice per day)?
**A.** Its value is “about 776.4+/−256.9 mL/h”.

**Q.** What about the “mean plasma CL/F of ethyl eicosapentaenoate” value ([2]; about 2 g orally twice per day) of the same compound?
**A.** The value was “about 683.7+/−280.6 mL/h”.

**Q.** And the “effect of age on AUC0-24hr and maximum concentration of total and unesterified plasma EPA” value ([2]; graphical examination)?
**A.** Its value is “no effect of age was observed”.

**Q.** And the “effect of gender on EPA exposure parameters” value ([2]; in vivo)?
**A.** Its value is “no consistent gender effect was observed”.
